The text below walks through data of paper PMC9785280, “Synthesis, Antiproliferative Evaluation and QSAR Analysis of Novel Halogen- and Amidino-Substituted Benzothiazoles and Benzimidazoles” (International Journal of Molecular Sciences, 2022).

For series [1], the system named is HuT78 (T-cell lymphoma) cells. Briefly: MTT antiproliferative assay, HuT78. It is filed as cell-based, human. The settings on record: for IC50: Homo sapiens, HuT78, 72 h, 72 h, MTT, mean ± SD of three independent experiments; for SI (BJ) HuT78: SI = IC50 BJ / IC50 HuT78; for SI (MDCK) HuT78: SI = IC50 MDCK1 / IC50 HuT78. The method, then:
(§1) The growth inhibition activity was assessed according to the slightly modified procedure performed at the National Cancer Institute, Developmental Therapeutics Program.
(§2) Examined compounds were dissolved in DMSO (1 × 10^−2 M). The experiments were carried out on seven human tumor cell lines and two normal cell lines. The following cell lines were used: HeLa (human cervical adenocarcinoma; purchased from ATCC), CaCo-2 (human colorectal adenocarcinoma), HuT78 (T-cell lymphoma), THP-1 (acute monocytic leukemia), SW620 (colorectal adenocarcinoma, metastatic), MDA-MB-231 (human breast adenocarcinoma), HL60 (promyelocytic leukemia cell line), foreskin fibroblast cells (BJ) and MDCK1 (Madine–Darby canine kidney fibroblast like cells). MDCK1 cells were used between 24 and 26 passages.
(§3) Adherent cells were cultured in the Dulbecco’s modified Eagle medium—DMEM (Gibco, EU) supplemented with 10 % heat-inactivated fetal bovine serum (FBS, Gibco, EU), 2 mM glutamine, and 100 U/0.1 mg penicillin/streptomycin. Cells on suspension were cultured in RPMI 1640 (Gibco, EU) medium supplemented with 10 % FBS (Gibco, EU), 2 mM glutamine, 1 mM sodium pyruvate, 10 mM HEPES. Cells were grown in humidified atmosphere under the conditions of 37 °C/5% of CO2 gas in the CO2 incubator (IGO 150 CELLlife^TM, JOUAN, Thermo Fisher Scientific, Waltham, MA, USA). A erythrosin B (Sigma-Aldrich, St. Louis, MO, USA) dye exclusion method was used to assess cell viability before plating.
(§4) Adherent cells (HeLa, CaCo-2, MCF-7 and MDCK-1) were plated in 96-well flat bottom plates (Greiner, Frickenhausen, Austria) at a concentration of 2 × 10^4 cells/mL. Suspension cells (THP-1 and HuT78) were plated in 96-well microtiter plates (Sarstead, Newton, USA) at a concentration of 1 × 10^5 cells/mL. Twenty-four hours later, cells were treated with test agents in […] 10-fold dilutions ([…] to 10^−4 M) and incubated for further 72 h. Working dilutions were freshly prepared on the day of testing. The solvent was also tested for eventual inhibitory activity by adjusting its concentration to be the same as in working concentrations. After 72 h of incubation, the cell growth rate was evaluated by performing the MTT assay, which detects dehydrogenase activity in viable cells. For this purpose, upon completion of the incubation period, growth medium was discarded and 50 μL of MTT was added to each well at a concentration of 5 mg/mL. After four hours of incubation at 37 °C, water insoluble MTT-formazan crystals were dissolved in 150 μL of dimethyl-sulfoxide (DMSO) for adherent cells, and in 10 % SDS with 0.01 M/L HCl for cells grown in suspension. The absorbance (OD, optical density) was measured on a microplate reader (iMark, BIO RAD, Hercules, CA, USA) at 595 nm.
(§5) Percent of life cells was calculated as follows: % = OD (sample)–OD (background)/OD (control)–OD (background) × 100.
(§6) Optical density (OD) of background for adherent cells is the OD of MTT solution and DMSO; OD (background) for suspension cells is OD of the culture medium with MTT and 10% SDS with 0.01 M/L HCl; OD (control) is the OD of the cells growth without tested compounds.
(§7) Calculation of GI50 value curves and QC analysis is performed by using the Excel tools and GraphPadPrism software (La Jolla, CA), v. 5.03. Briefly, individual concentration effect curves are generated by plotting the logarithm of the concentration of tested compounds(X) vs. corresponding percent inhibition values (Y) using least squares fit. The best fit GI50 values are calculated using Log (inhibitor) versus normalized response—Variable slope equation, where Y Ľ 100/(1 ţ 10 ((LogIC50 _ X) * HillSlope)). QC criteria parameters (Z0, S:B, R2, HillSlope) were checked for every GI50 curve.

Series [2] concerns CaCo-2 (colon adenocarcinoma) cells. Nature of the series: MTT antiproliferative assay, CaCo-2. The format is cell-based, human. The settings on record: for IC50: Homo sapiens, Caco-2, 72 h, MTT, mean ± SD of three independent experiments. The method, then:
as §1, §2, §3, §4, §5, §6
Calculation of GI50 value curves and QC analysis is performed by using the Excel tools and GraphPadPrism software (La Jolla, CA), v. 5.03. Briefly, individual concentration effect curves are generated by plotting the logarithm of the concentration of tested compounds(X) vs. corresponding percent inhibition values (Y) using least squares fit. […] QC criteria parameters (Z0, S:B, R2, HillSlope) were checked for every GI50 curve.

The test system of series [3] is MDCK1 (Madin–Darby canine kidney) cells. Briefly: MTT antiproliferative assay, non-tumor MDCK1 cells. It is filed as cell-based. To be noted: Canis lupus familiaris, MDCK1, 72 h, mean ± SD of three independent experiments, normal cells. The method, then:
as §1, §2, §3, §4, §5, §6, §7

For series [4], the system named is HeLa (cervical adenocarcinoma) cells. Nature of the series: MTT antiproliferative assay, HeLa. The format is cell-based. To be noted: Homo sapiens, 72 h, mean ± SD of three independent experiments. On the procedure: as §1, §2, §3, §4, §5, §6, §7
Another series has as its system human fibroblasts (BJ). Briefly: MTT antiproliferative assay, normal BJ fibroblasts. It is filed as cell-based. The settings on record: Homo sapiens, Fibroblast, 72 h, MTT, mean ± SD of three independent experiments; normal cells. The method, then:
as §1, §2, §3, §4, §5, §6, §7

For the molecule `Fc1cc(-c2nc3ccc(C4=NCCCN4)cc3s2)ccc1OCc1c[nH]nn1` [40b], the IC50 in series [1] is 37.3 ± 12.8 µM; in series [2], more than 100 µM; in series [3], more than 100 µM; in series [4], more than 100 µM; in the series with human fibroblasts (BJ), more than 100 µM. For the same molecule, in series [1], the “SI (BJ) HuT78” value is 2.68. In addition, the “SI (MDCK) HuT78” value in series [1] is 2.68.
As for `Fc1cc(-c2nc3ccc(C4=NCCN4)cc3[nH]2)ccc1OCc1c[nH]nn1` [44b], the IC50 in series [1] was 65.6 ± 17.3 µM; in series [2], more than 100 µM; in series [3], more than 100 µM; in series [4], more than 100 µM; in the series with human fibroblasts (BJ), 45.1 ± 20.9 µM. The “SI (MDCK) HuT78” value in series [1] came to 1.52.
Consider `c1cc(-c2nc3ccc(C4=NCCN4)cc3[nH]2)ccc1OCc1cn(CCN2CCOCC2)nn1` [46a], for which the IC50 in series [1] is 63 ± 15.1 µM; in series [2], more than 100 µM; in series [3], more than 100 µM; in series [4], more than 100 µM; with human fibroblasts (BJ), more than 100 µM. The “SI (BJ) HuT78” value in series [1] is 1.59. Besides, the “SI (MDCK) HuT78” value in series [1] is 1.59.
Take `Fc1cc(-c2nc3ccc(C4=NCCN4)cc3[nH]2)ccc1OCCN1CCOCC1` [48b]: the half-inhibitory concentration (IC50) (in series [1]; in series [2]; in series [3]; in series [4]; in the series on human fibroblasts (BJ)) was more than 100 µM in each case.
Regarding `CCN(CC)CCOc1ccc(-c2nc3ccc(C4=NCCN4)cc3[nH]2)cc1` [49a], the IC50 is more than 100 µM in series [1]; more than 100 µM in series [2]; more than 100 µM in series [3]; more than 100 µM in series [4]; 80.4 ± 9.9 µM in the series on human fibroblasts (BJ).
In the case of `O=C(COc1ccc(-c2nc3ccc(C4=NCCN4)cc3[nH]2)cc1)N1CCOCC1` [47a], the IC50 (in series [1]; in series [2]; in series [3]; in series [4]; in the series on human fibroblasts (BJ)) was more than 100 µM each time.
Take `COc1cc(-c2nc3ccc(C4=NCCN4)cc3[nH]2)ccc1OCc1c[nH]nn1` [44c]: the IC50 (in series [1]; in series [2]; in series [3]; in series [4]; with human fibroblasts (BJ)) was more than 100 µM in each case.
In the case of `CCN(CC)CCOc1ccc(-c2nc3ccc(C4=NCCN4)cc3[nH]2)cc1F` [49b], the half-maximal inhibitory concentration (IC50) in series [1] was more than 100 µM; in series [2] it was more than 100 µM; in series [3], 82.9 ± 6.6 µM; in series [4], more than 100 µM; in the series with human fibroblasts (BJ) it was 64.8 ± 9.2 µM.
`c1ccc(Cn2cc(COc3ccc(-c4nc5ccc(C6=NCCCN6)cc5s4)cc3)nn2)cc1` [41a]: the half-maximal inhibitory concentration (IC50) in series [1] came to 4.1 ± 3.6 µM; in series [2], 29.2 ± 4.2 µM; in series [3] it was 58.2 ± 17.3 µM; in series [4] it was 25.8 ± 0.8 µM; in the series with human fibroblasts (BJ) it was 27.3 ± 6 µM. Further, the “SI (BJ) HuT78” value in series [1] turned out to be 6.65. Moreover, the “SI (MDCK) HuT78” value in series [1] is on record as 14.19. In addition, in series [2] (SI = IC50 MDCK1 / IC50 CaCo-2), the “SI (MDCK) CaCo-2” value is 1.99.
For the molecule `O=C(COc1ccc(-c2nc3ccc(C4=NCCCN4)cc3s2)cc1)c1ccccc1` [38a], the IC50 in series [1] came to 16.2 ± 5.5 µM; in series [2] it was 25.4 ± 3.5 µM; in series [3] it was 27.1 ± 3.4 µM; in series [4], 19.7 ± 3.1 µM; with human fibroblasts (BJ), 22.6 ± 4.6 µM. The “SI (BJ) HuT78” value in series [1] is reported as 1.39. In addition, the “SI (MDCK) HuT78” value in series [1] was found to be 1.67.
Turning to `COc1cc(-c2nc3ccc(C4=NCCN4)cc3[nH]2)ccc1OCc1ccccn1` [43c], the IC50 in series [1] is 17.7 ± 6.1 µM; in series [2], more than 100 µM; in series [3], 63.4 ± 8.9 µM; in series [4], more than 100 µM; with human fibroblasts (BJ), 30.9 ± 8.7 µM. The “SI (BJ) HuT78” value in series [1] turned out to be 1.75. In addition, in series [1], the “SI (MDCK) HuT78” value is recorded as 3.58.
As to `COc1cc(-c2nc3ccc(C4=NCCCN4)cc3s2)ccc1OCc1cn(Cc2ccccc2)nn1` [41c], the 50% inhibitory concentration (IC50) (in series [1]; in series [2]; in series [3]; in series [4]; in the series on human fibroblasts (BJ)) was more than 100 µM throughout.
`c1cc(-c2nc3ccc(C4=NCCN4)cc3[nH]2)ccc1OCc1c[nH]nn1` [44a]: the IC50 in series [1] was 89.2 ± 20.6 µM; in series [2], more than 100 µM; in series [3] it was more than 100 µM; in series [4], more than 100 µM; with human fibroblasts (BJ), 73.3 ± 3.2 µM. The “SI (MDCK) HuT78” value in series [1] came out at 1.2.
Regarding `O=c1[nH]cc(F)c(=O)[nH]1` [5-FU, 5-Fluorouracil, reference compound], the “antiproliferative effect on HuT78 cells (in words)” value in series [1] is “did not exhibit antiproliferative effect”. Further, the IC50 in series [1] is more than 100 µM; in series [3], 55 ± 8.7 µM; in series [4], 8.2 ± 1.9 µM; in the series on human fibroblasts (BJ), 74 ± 3.1 µM.
On to `O=C(COc1ccc(-c2nc3ccc(C4=NCCN4)cc3[nH]2)cc1F)N1CCOCC1` [47b], for which the IC50 (in series [1]; in series [2]; in series [3]; in series [4]; in the series on human fibroblasts (BJ)) was more than 100 µM throughout.
`Fc1cc(-c2nc3ccc(C4=NCCN4)cc3[nH]2)ccc1OCc1ccccn1` [43b]: the IC50 in series [1] is 43.3 ± 4.4 µM; in series [2], more than 100 µM; in series [3], more than 100 µM; in series [4], more than 100 µM; with human fibroblasts (BJ), more than 100 µM. Also, the “SI (BJ) HuT78” value in series [1] was found to be 2.3. For the same molecule, the “SI (MDCK) HuT78” value in series [1] is 2.3.
For `CCN(CC)CCOc1ccc(-c2nc3ccc(C4=NCCN4)cc3[nH]2)cc1OC` [49c], the IC50 (in series [1]; in series [2]; in series [3]; in series [4]; in the series on human fibroblasts (BJ)) was more than 100 µM throughout.
Take `COc1cc(-c2nc3ccc(C4=NCCN4)cc3[nH]2)ccc1OCCN1CCOCC1` [48c]: the IC50 in series [1] was 69.6 ± 25.9 µM; in series [2] it was more than 100 µM; in series [3], more than 100 µM; in series [4] it was more than 100 µM; in the series with human fibroblasts (BJ), more than 100 µM. In addition, the “SI (BJ) HuT78” value in series [1] was 1.44. Further, the “SI (MDCK) HuT78” value in series [1] is recorded as 1.44.
On to `c1cc(-c2nc3ccc(C4=NCCCN4)cc3s2)ccc1OCc1c[nH]nn1` [40a], for which the IC50 in series [1] was more than 100 µM; in series [2], more than 100 µM; in series [3], 59.4 ± 18.8 µM; in series [4], more than 100 µM; in the series on human fibroblasts (BJ), more than 100 µM.
In the case of `c1cc(-c2nc3ccc(C4=NCCN4)cc3[nH]2)ccc1OCCN1CCOCC1` [48a], the IC50 (in series [1]; in series [2]; in series [3]; in series [4]; with human fibroblasts (BJ)) was more than 100 µM each time.
Take `Clc1ccc2nc(-c3ccc(OCc4ccccn4)cc3)sc2c1` [18a]: the IC50 in series [1] was 13.2 ± 1.2 µM; in series [2], more than 100 µM; in series [3], 17.6 ± 5.7 µM; in series [4], 42.4 ± 7.5 µM; with human fibroblasts (BJ), more than 100 µM. Besides, the “SI (BJ) HuT78” value in series [1] worked out at 3.2.
